Test results: patent EP0664802B1, “N-ARYLHETEROARYLALKYL 1-PHENYL-IMIDAZOL-2-ONE COMPOUNDS FOR TREATMENT OF CIRCULATORY DISORDERS” (G.D. SEARLE & CO., priority 1992, dated 1994)
Several values for one entry are separate records, joined by “and”; a condition that tells them apart may be missing. Identical values can stand only once.

What was measured:
rabbit aortic rings = experiment: Assay B: In Vitro Vascular Smooth Muscle Response for AII (antagonist activity, isometric force); type: cell-based; details: antagonist at 10^-5 M, 5 min before AII challenge; Schild; aorta rings from two rabbits (two values per cell)
Procedure: Assay B: In Vitro Vascular Smooth Muscle-Response for AII
The compounds of the invention were tested for antagonist activity in rabbit aortic rings. Male New Zealand white rabbits (2-2.5 kg) were sacrificed using an overdose of pentobarbital and exsanguinated via the carotid arteries. The thoracic aorta was removed, cleaned of adherent fat and connective tissue and then cut into 3-mm ring segments. The endothelium was removed from the rings by gently sliding a rolled-up piece of filter paper into the vessel lumen. The rings were then mounted in a water-jacketed tissue bath, maintained at 37°C, between moveable and fixed ends of a stainless steel wire with the moveable end attached to an FT03 Grass transducer coupled to a Model 7D Grass Polygraph for recording isometric force responses. The bath was filled with 20 ml of oxygenated (95% oxygen/5% carbon dioxide) Krebs solution of the following composition (mM): 130 NaCl, 15 NaHC03, 15 KCl, 1.2 NaH2P04, 1.2 MgS04, 2.5 CaC12, and 11.4 glucose. The preparations were equilibrated for one hour before approximately one gram of passive tension was placed on the rings. Angiotensin II concentration-response curves were then recorded (3 X 10^-10 to 1 x 10^-5 M). Each concentration of AII was allowed to elicit its maximal contraction, and then AII was washed out repeatedly for 30 minutes before rechallenging with a higher concentration of AII. Aorta rings were exposed to the test antagonist at 10^-5 M for 5 minutes before challenging with AII. Adjacent segments of the same aorta ring were used for all concentration-response curves in the presence or absence of the test antagonist. The effectiveness of the test compound was expressed in terms of pA2 values and were calculated according to H.O. Schild [Br. J. Pharmacol. Chemother., 2,189-206 (1947)]. The pA2 value is […] of the antagonist which increases the EC50 value for AII by a factor of two. Each test antagonist was evaluated in aorta rings from two rabbits.

pressor response to AII = experiment: Assay C: In Vivo Intragastric Pressor Assay Response for AII antagonists; design: species or system Sprague-Dawley rats; details: Dose: 3 mg/kg (i.g.); for Assay C Duration: AII challenges up to 180 minutes after gavage; for Assay C Inhibition (%): inhibition of pressor response to 30 ng/kg AII bolus, conscious rats
Procedure: Assay C: In Vivo Intragastric Pressor Assay Response for All Antagonists
Male Sprague-Dawley rats weighing 225-300 grams were anesthetized with methohexital (30 mg/kg, i.p.) and catheters were implanted into the femoral artery and vein. The catheters were tunneled subcutaneously to exit dorsally, posterior to the head and between the scapulae. The catheters were filled with heparin (1000 units/ml of saline). The rats were returned to their cage and allowed regular rat chow and water ad libitum. After full recovery from surgery (3-4 days), rats were placed in Lucite holders and the arterial line was connected to a pressure transducer. Arterial pressure was recorded on a Gould polygraph (mmHg). Angiotensin II was administered as a 30 ng/kg bolus via the venous catheter delivered in a 50 µl volume with a 0.2 ml saline flush. The pressor response in mm Hg was measured by the difference from pre-injection arterial pressure to the maximum pressure achieved. The AII injection was repeated every 10 minutes until three consecutive injections yielded responses within 4 mmHg of each other. These three responses were then averaged and represented the control response to AII. The test compound was suspended in 0.5% methylcellulose in water and was administered by gavage. The volume administered was 2 ml/kg body weight. The standard dose was 3 mg/kg. Angiotensin II bolus injections were given at 30, 45, 60, 75, 120, 150, and 180 minutes after gavage. The pressor response to AII was measured at each time point. The rats were then returned to their cage for future testing. A minimum of 3 days was allowed between tests. Percent inhibition was calculated for each time point following gavage by the following formula: [(Control Response - Response at time point)/Control Response] X 100 [formula] .

CCCCc1cn(-c2c(C(C)C)cccc2C(C)C)c(=O)n1Cc1ccc(-c2ccccc2-c2nnn[nH]2)nc1 [Example 8, 1-(2,6-diisopropylphenyl)-4-butyl-1,3-dihydro-3-[[6-[2-(1H-tetrazol-5-yl)phenyl]-3-pyridinyl]methyl]-2H-imidazol-2-one]
Assay B pA2 (rabbit aortic rings): 7.14 and 7.07

CCCCc1cn(-c2c(C)cccc2Cl)c(=O)n1Cc1ccc(-c2ccccc2-c2nnn[nH]2)nc1 [Example 4, 1-(2-chloro-6-methylphenyl)-4-butyl-1,3-dihydro-3-[[6-[2-(1H-tetrazol-5-yl)phenyl]-3-pyridinyl]methyl]-2H-imidazol-2-one]
Assay C Duration (pressor response to AII): >180 min
Assay C Inhibition (%) (pressor response to AII): 75%

CCCCc1cn(-c2c(C)cc(C(C)(C)C)cc2C)c(=O)n1Cc1ccc(-c2ccccc2-c2nnn[nH]2)nc1 [Example 6, 1-(2,6-dimethyl-4-tertbutylphenyl)-4-butyl-1,3-dihydro-3-[[6-[2-(1H-tetrazol-5-yl)phenyl]-3-pyridinyl]methyl]-2H-imidazol-2-one]
Assay B pA2 (rabbit aortic rings): 8.51 and 8.78

CCCCc1cn(-c2ccccc2CC)c(=O)n1Cc1ccc(-c2ccccc2-c2nnn[nH]2)nc1 [Example 1, 1-(2-ethylphenyl)-4-butyl-1,3-dihydro-3-[[6-[2-(1H-tetrazol-5-yl)phenyl]-3-pyridinyl]methyl]-2H-imidazol-2-one]
Assay C Duration (pressor response to AII): >180 min
Assay C Inhibition (%) (pressor response to AII): 80%

CCCCc1cn(-c2c(C)cc(C)cc2C)c(=O)n1Cc1ccc(-c2ccccc2-c2nnn[nH]2)nc1 [Example 5, 1-(2,4,6-trimethylphenyl)-4-butyl-1,3-dihydro-3-[[6-[2-(1H-tetrazol-5-yl)phenyl]-3-pyridinyl]methyl]-2H-imidazol-2-one]
Assay B pA2 (rabbit aortic rings): 8.59 and 8.89
Assay C Duration (pressor response to AII): >180 min
Assay C Inhibition (%) (pressor response to AII): 70%

CCCCc1cn(-c2c(CC)cccc2CC)c(=O)n1Cc1ccc(-c2ccccc2-c2nnn[nH]2)nc1 [Example 7, 1-(2,6-diethylphenyl)-4-butyl-1,3-dihydro-3-[[6-[2-(1H-tetrazol-5-yl)phenyl]-3-pyridinyl]methyl]-2H-imidazol-2-one]
Assay C Inhibition (%) (pressor response to AII): 20%

CCCCc1cn(-c2c(OC)cccc2OC)c(=O)n1Cc1ccc(-c2ccccc2-c2nnn[nH]2)nc1 [Example 3, 1-(2,6-dimethoxyphenyl)-4-butyl-1,3-dihydro-3-[[6-[2-(1H-tetrazol-5-yl)phenyl]-3-pyridinyl]methyl]-2H-imidazol-2-one]
Assay C Duration (pressor response to AII): >180 min
Assay C Inhibition (%) (pressor response to AII): 25%

CCCCc1cn(-c2ccccc2C(C)(C)C)c(=O)n1Cc1ccc(-c2ccccc2-c2nnn[nH]2)nc1 [Example 2, 1-(2-tertbutylphenyl)-4-butyl-1,3-dihydro-3-[[6-[2-(1H-tetrazol-5-yl)phenyl]-3-pyridinyl]methyl]-2H-imidazol-2-one]
Assay C Duration (pressor response to AII): >180 min
Assay C Inhibition (%) (pressor response to AII): 40%
